ChEMBL document CHEMBL4402608 (J Med Chem, 2020)
pEC50, pIC50: −log10 of the molar value.

How the values were obtained:
D(3) dopamine receptor [1] = molecular target: T1, D(3) dopamine receptor (Homo sapiens, UniProt P35462); experiment: Agonist activity at human D3R expressed in CHOK1 cells assessed as induction of beta-arrestin recruitment measured after 90 mins by beta-galactosidase based PathHunter assay; assay type: cell-based; conditions: for pEC50: read-out: EC50
D(2) dopamine receptor [2] = molecular target: T2, D(2) dopamine receptor (Homo sapiens, UniProt P14416); experiment: Agonist activity at human D2R expressed in CHOK1 cells assessed as induction of beta-arrestin recruitment measured after 90 mins by beta-galactosidase based PathHunter assay; assay type: cell-based; conditions: for pEC50: read-out: EC50
D(2) dopamine receptor [3] = molecular target: T2, D(2) dopamine receptor; experiment: Antagonist activity at human D2R expressed in CHOK1 cells assessed as inhibition of dopamine-induced beta-arrestin recruitment measured after 120 mins by beta-galactosidase based PathHunter assay relative to sulpiride; assay type: cell-based; conditions: 2 h, read-out: Imax
D(2) dopamine receptor [4] = molecular target: T2, D(2) dopamine receptor
D(3) dopamine receptor [5] = molecular target: T1, D(3) dopamine receptor; experiment: biochemical
[6] = molecular target: 5-hydroxytryptamine receptor 2B (Homo sapiens, UniProt P41595); experiment: Antagonist activity at recombinant human 5-HT2B receptor expressed in CHOK1 cells assessed as inhibition of serotonin-induced increase in inositol1-phosphate accumulation measured after 30 mins by HTRF assay; assay type: functional, cell-based
D(2) dopamine receptor [7] = molecular target: T2, D(2) dopamine receptor; experiment: Antagonist activity at human D2R expressed in CHOK1 cells assessed as inhibition of dopamine-induced beta-arrestin recruitment measured after 120 mins by beta-galactosidase based PathHunter assay; assay type: cell-based; conditions: for pIC50: read-out: IC50

T2 sequence (P14416 whole entry): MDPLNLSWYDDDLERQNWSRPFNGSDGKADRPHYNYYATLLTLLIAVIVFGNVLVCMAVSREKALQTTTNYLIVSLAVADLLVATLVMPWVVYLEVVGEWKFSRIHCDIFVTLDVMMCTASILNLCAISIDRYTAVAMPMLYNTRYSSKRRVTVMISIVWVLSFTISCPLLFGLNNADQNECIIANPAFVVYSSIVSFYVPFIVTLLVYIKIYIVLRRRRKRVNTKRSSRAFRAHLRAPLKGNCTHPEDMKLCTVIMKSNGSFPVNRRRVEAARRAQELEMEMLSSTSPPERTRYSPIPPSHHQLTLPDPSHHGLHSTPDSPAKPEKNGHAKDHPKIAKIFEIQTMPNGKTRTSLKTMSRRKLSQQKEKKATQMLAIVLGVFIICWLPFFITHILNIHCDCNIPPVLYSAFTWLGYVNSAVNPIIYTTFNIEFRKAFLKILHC
T1 sequence (P35462 whole entry): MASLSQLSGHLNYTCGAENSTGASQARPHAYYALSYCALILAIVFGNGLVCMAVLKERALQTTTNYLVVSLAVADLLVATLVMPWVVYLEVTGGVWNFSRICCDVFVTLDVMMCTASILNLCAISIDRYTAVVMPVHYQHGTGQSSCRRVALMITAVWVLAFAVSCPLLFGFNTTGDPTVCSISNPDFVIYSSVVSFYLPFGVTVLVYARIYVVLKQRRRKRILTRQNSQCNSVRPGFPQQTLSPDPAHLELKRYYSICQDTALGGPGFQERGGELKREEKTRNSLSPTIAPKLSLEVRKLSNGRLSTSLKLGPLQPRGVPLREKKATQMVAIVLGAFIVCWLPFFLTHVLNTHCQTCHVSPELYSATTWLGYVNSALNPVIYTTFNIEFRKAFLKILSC
Chain of 5-hydroxytryptamine receptor 2B (P41595 whole entry): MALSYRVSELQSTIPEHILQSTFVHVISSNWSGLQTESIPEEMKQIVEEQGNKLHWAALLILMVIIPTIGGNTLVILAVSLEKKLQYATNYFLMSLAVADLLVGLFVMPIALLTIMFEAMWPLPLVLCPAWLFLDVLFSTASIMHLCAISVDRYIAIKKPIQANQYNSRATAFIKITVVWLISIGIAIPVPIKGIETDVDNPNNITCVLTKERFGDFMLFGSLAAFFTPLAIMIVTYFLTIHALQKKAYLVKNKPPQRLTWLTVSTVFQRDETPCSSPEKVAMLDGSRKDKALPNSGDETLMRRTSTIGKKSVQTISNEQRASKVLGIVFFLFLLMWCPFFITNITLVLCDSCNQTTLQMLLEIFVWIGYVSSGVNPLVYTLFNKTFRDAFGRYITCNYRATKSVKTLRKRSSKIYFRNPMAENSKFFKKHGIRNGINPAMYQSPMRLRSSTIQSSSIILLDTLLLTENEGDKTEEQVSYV

SMILES | pEC50 (D(3) dopamine receptor [1]) | EC50 (D(2) dopamine receptor [2]) | pIC50 (D(2) dopamine receptor [7]) | pEC50 (D(2) dopamine receptor [2]) | further results
Cn1ccc2cc3c(cc21)CCN3C(=O)Nc1cccnc1 |  |  |  |  | pEC50 [6]: 7.89
COc1ccc(C(=O)N2CCN(CCOc3ccc(Cl)cc3)CC2)cc1 |  | Not Active | < 5.00 |  | Emax (D(2) dopamine receptor [3]): 101%
COc1ccc(OCCN2CCN(C(=O)c3ccc(OC)cc3)CC2C)cc1 (configuration not stated) | 5.36 | Not Active | < 4.00 |  | 
CCOc1ccc(OCCN2CCN(C(=O)c3cc4ccccc4[nH]3)CC2)cc1 | < 4.00 | Not Active | < 4.00 |  | 
COc1ccc(OCCN2CCN(C(=O)c3nc4ccccc4[nH]3)CC2)cc1 | 6.72 | Not Active | < 4.30 |  | 
COc1ccc(OCCN2CCN(C(=O)c3cc4ccccc4[nH]3)CC2)c(Cl)c1 | 7.39 | Not Active | < 5.00 |  | 
CSc1ccc(OCCN2CCN(C(=O)c3cc4ccccc4[nH]3)CC2)cc1 | 6.20 | Not Active | < 4.00 |  | 
COc1ccc(C(=O)N2CCN(CCOc3ccc4c(c3)OCO4)CC2)cc1 | 6.51 | Not Active | < 5.00 |  | Emax (D(2) dopamine receptor [3]): 87%
O=C(c1cc2ccccc2[nH]1)N1CCN(CCOc2ccc(F)cc2)CC1 | 6.90 |  | 5.01 | < 4.30 | Emax (D(2) dopamine receptor [3]): 72%
Cc1ccc(OCCN2CCN(C(=O)c3cc4ccccc4[nH]3)CC2)cc1 | 6.82 |  | < 4.00 | < 4.30 | 
O=C(c1cc2ccccc2[nH]1)N1CCN(CCOc2ccc(OC(F)(F)F)cc2)CC1 | 5.42 |  | < 4.00 | < 4.00 | 
COc1ccc(OCCN2CCN(C(=O)c3cc4ccccc4[nH]3)CC2)cc1OC | 6.15 | Not Active | < 4.30 |  | 
O=C(c1cc2ccccc2o1)N1CCN(CCOc2cccnc2)CC1 | 7.38 |  |  | 5.77 | IC50 (D(2) dopamine receptor [7]): Not Active
COc1ccc(OCCN2CCN(C(=O)c3ccc(Cl)cc3)CC2)cc1 |  | Not Active | 5.05 |  | EC50 (D(3) dopamine receptor [1]): Not Active; Emax (D(2) dopamine receptor [3]): 107%
COc1ccc(C(=O)N2CCN(CCOc3cccnc3)CC2)c(C)c1 | 6.94 |  | < 4.00 | 5.34 | 

Now from value to molecule, other results behind:

pEC50 (D(3) dopamine receptor [1]) | EC50 (D(2) dopamine receptor [2]) | pIC50 (D(2) dopamine receptor [7]) | pEC50 (D(2) dopamine receptor [2]) | SMILES | further results
6.15 | Not Active |  |  | COc1ccc(OCCN2CCN(C(=O)c3ccc(OC)cc3)CC2)cc1 | Emax (D(2) dopamine receptor [3]): 88%; pIC50 (D(2) dopamine receptor [4]): < 4.00; pIC50 (D(3) dopamine receptor [5]): 4.00 to 5.00
6.00 | Not Active |  |  | Cc1ccc(OCCN2CCN(C(=O)c3cc4ccccc4[nH]3)CC2)cc1Cl | IC50 (D(2) dopamine receptor [7]): Not Active
6.55 |  |  | 5.77 | COc1cccc(OCCN2CCN(C(=O)c3cc4cc(OC)ccc4[nH]3)CC2)c1 | IC50 (D(2) dopamine receptor [7]): Not Active
6.28 | Not Active | 5.22 |  | CCc1ccc(C(=O)N2CCN(CCOc3ccc(OC)cc3)CC2)cc1 | Emax (D(2) dopamine receptor [3]): 106%
6.24 |  | < 4.00 | 5.26 | COc1ccc(OCCN2CCN(C(=O)c3cc4cnccc4[nH]3)CC2)cc1 | 
6.80 |  | < 4.00 | 5.15 | COc1ccc(OCCN2CCN(C(=O)c3cc4c(Cl)cccc4[nH]3)CC2)cc1 | 
